According to patent US20250326708A1, “LONG-ACTING SPLEEN-TARGETING CATIONIC LIPID COMPOUND COMPRISING BENZENE RING STRUCTURE, COMPOSITION COMPRISING SAME, AND USE THEREOF” (Beijing Youcarekechuang Pharmaceutical Technology Co., Ltd., priority 2024, published 2025):
Where “and” joins values, the source holds several entries; their conditions need not be identical. Equal values may be shown once.

Experiments:
[1] = system: female BALB/C mice; experiment: Expression of delivered mRNA in different organs of mice (organ imaging); type: in vivo; settings: for Average radiation intensity of mouse organs: Heart / Average radiation intensity of mouse organs: Kidney / Average radiation intensity of mouse organs: Liver / Average radiation intensity of mouse organs: Lung / Average radiation intensity of mouse organs: Lymph / Average radiation intensity of mouse organs: Spleen: 6 hours after 5 μg Fluc-mRNA subcutaneously; for Expression level of mRNA in the spleen, times that of SM-102 / Expression level of mRNA in the spleen, times that of YK-501 / Expression level of mRNA in the spleen, times that of YK-506: 6 h; for Expression level of mRNA in the spleen, times that of SM-102: vs SM-102; for Expression level of mRNA in the spleen, times that of YK-501: vs YK-501; for Expression level of mRNA in the spleen, times that of YK-506: vs YK-506
Protocol: LNP preparations containing 5 μg of Fluc-mRNA were subcutaneously injected into female BALB/C mice (4 to 6 weeks old, weighing 17 to 19 g). At specified time points after administration (6 h), the mice were intraperitoneally injected with fluorescent imaging substrates and allowed to move freely for 5 minutes. The average radiation intensity (corresponding to fluorescence intensity) of proteins expressed by the mRNA delivered by the LNP preparations in the mice in vivo was then detected using the IVIS Spectrum small-animal in vivo imaging system. After sampling, the mice were killed by cervical dislocation and dissected, and the internal organs: heart, liver, spleen, lung, kidney, and lymph of mice were accurately isolated. The average radiation intensity (corresponding to fluorescence intensity) of proteins expressed by the mRNA delivered by the LNP preparations in various organs of mice was then detected using the IVIS Spectrum small-animal in vivo imaging system.

[2] = Particle size and polydispersity index (PDI) of lipid nanoparticles, dynamic light scattering; type: physicochemical; settings: LNP preparation with the named cationic lipid; 90° scattering angle, 25° C
Text: (§1) The cationic lipids listed in Table 2 were each mixed with DSPC (AVT (Shanghai) Pharmaceutical Technology Co., Ltd.), cholesterol (AVT (Shanghai) Pharmaceutical Technology Co., Ltd.), and DMG-PEG2000 in a molar ratio of 49:10:39.5:1.5 and dissolved in ethanol to prepare ethanol lipid solutions. Using the ethanol injection method, the ethanol lipid solutions were quickly added to a citrate buffer (pH between 4 and 5), and vortexed for 30 seconds for later use. eGFP-mRNA (purchased from Shanghai BioHub Biotechnology Co., Ltd.), Fluc-mRNA (purchased from Shanghai BioHub Biotechnology Co., Ltd.), or Cy5 fluorescently labeled Leqvio (purchased from Sangon Biotech (Shanghai) Co., Ltd.) was diluted in a citrate buffer (pH between 4 and 5) to obtain an mRNA aqueous solution. A certain volume of the lipid solution and the mRNA aqueous solution were mixed to prepare liposomes at a total lipid-to-mRNA weight ratio of 15:1. The mixtures were sonicated at 25° C. for 15 minutes (ultrasonic frequency: 40 kHz, ultrasonic power: 800 W). The resulting liposomes were diluted 10-fold with PBS, followed by ultrafiltration using a 300 kDa ultrafiltration tube to remove ethanol. After adjusting the volume with PBS, LNP preparations encapsulating eGFP-mRNA or Fluc-mRNA were obtained, using cationic lipids, DSPC, cholesterol, and DMG-PEG2000 at a molar ratio of 49:10:39.5:1.5.
The particle size and polydispersity index (PDI) were measured using dynamic light scattering with a Malvern laser diffraction particle size analyzer.
10 μL of liposome solution was diluted to 1 mL with RNase-free deionized water and added to the sample cell. Each sample was measured three times. The measurement conditions were as follows: 90° scattering angle, 25° C.

[3] = system: 293T cells; experiment: Fluorescence detection of Fluc-mRNA (transfection efficiency) of LNP preparations; type: cell-based; settings: for Relative light unit (RLU): LNP with 0.3 μg Fluc-mRNA, 96-well plate, 24 hours; for Cellular transfection efficiency, times that of HHMA: vs HHMA; for Cellular transfection efficiency, times that of I-1: vs I-1; for Cellular transfection efficiency, times that of Lipofectamine 3000: vs Lipofectamine 3000; for Cellular transfection efficiency, times that of MC3: vs MC3; for Cellular transfection efficiency, times that of SM-102: vs SM-102; for Cellular transfection efficiency, times that of YK-501: vs YK-501; for Cellular transfection efficiency, times that of YK-506: vs YK-506; for Cellular transfection efficiency, times that of compound 7: vs compound 7
Protocol: (§2) Cell recovery and passage: 293T cells were recovered and cultured in culture dishes. The cells were passaged until the required number of cells was obtained.
(§3) Seeding plates: The cells in culture dishes were digested and counted, then seeded in a 96-well plate at 10,000 cells per well and seeded in a 12-well plate at 150,000 cells per well. The cells were cultured overnight until cell adhesion.
as §1
(§4) Cell recovery and passage: The method was the same as described in Example 3.
(§5) Seeding plates: The method was the same as described in Example 3.
LNP preparations containing 0.3 μg of Fluc-mRNA (with the vector components of the LNP preparations of cationic lipids, DSPC, cholesterol, and DMG-PEG2000 in a molar ratio of 49:10:39.5:1.5, where the cationic lipids are those listed in Table 1) were added to the cell culture medium in a 96-well plate. After 24 hours of continued culture, the corresponding reagents were added according to the instructions in the Gaussia Luciferase Assay Kit. Fluorescence intensity in each well was detected using the IVIS fluorescence detection system. The transfection efficiency of LNP preparations prepared with a series of cationic lipid compounds designed in the present disclosure, as well as cationic lipids from the prior art, including SM-102, HHMA, MC3, compound 7, and I-1, is shown in Table 4.

[4] = system: female BALB/C mice; experiment: Expression of delivered mRNA in mice in vivo (IVIS in vivo imaging); settings: 10 μg Fluc-mRNA via tail vein
Protocol: LNP preparations containing 10 μg of Fluc-mRNA were injected via the tail vein into female BALB/C mice (4 to 6 weeks old, weighing 17 to 19 g). At specified time points after administration (6 h, 24 h, 48 h, and 7 d), the mice were intraperitoneally injected with fluorescent imaging substrates and allowed to move freely for 5 minutes. The average radiation intensity (corresponding to fluorescence intensity) of proteins expressed by the mRNA delivered by the LNP preparations in the mice in vivo was then detected using the IVIS Spectrum small-animal in vivo imaging system.

[5] = system: 293T cells; experiment: Cell viability assay (CCK-8) with LNP preparations of Fluc-mRNA; type: cell-based; settings: for Cell viability: LNP with 1.5 μg Fluc-mRNA, 24 hours, CCK-8
Protocol: as §2, §3, §1, §4, §5
LNP preparations containing 1.5 μg of Fluc-mRNA (with the vector components of the LNP preparations of cationic lipids, DSPC, cholesterol, and DMG-PEG2000 in a molar ratio of 49:10:39.5:1.5, where the cationic lipids are those listed in Table 1) were added to the cell culture medium in a 96-well plate. After 24 hours of continued culture, 10 μL of CCK-8 solution was added to each well, and the culture plate was incubated in an incubator for 1 hour.

| Structure (SMILES) | Average radiation intensity of mouse organs: Heart [1] | Average radiation intensity of mouse organs: Kidney [1] | Average radiation intensity of mouse organs: Liver [1] | Average radiation intensity of mouse organs: Lung [1] | Average radiation intensity of mouse organs: Lymph [1] | Average radiation intensity of mouse organs: Spleen [1] | PDI [2] | Particle size [2] | Relative light unit (RLU) [3] | Average radiation intensity, in vivo imaging ([4]; 6 h) | Average radiation intensity, in vivo imaging ([4]; 24 h) | Average radiation intensity, in vivo imaging ([4]; 48 h) | Average radiation intensity, in vivo imaging ([4]; 7 d) | Cell viability [5] | Expression level of mRNA in the spleen, times that of SM-102 [1] | Expression level of mRNA in the spleen, times that of YK-501 [1] | Expression level of mRNA in the spleen, times that of YK-506 [1] | Cellular transfection efficiency, times that of HHMA ([3]; Fluc-mRNA LNP) | Cellular transfection efficiency, times that of I-1 ([3]; Fluc-mRNA LNP) | Cellular transfection efficiency, times that of Lipofectamine 3000 ([3]; Fluc-mRNA LNP) | further results |
| --- | --- | --- | --- | --- | --- | --- | --- | --- | --- | --- | --- | --- | --- | --- | --- | --- | --- | --- | --- | --- | --- |
| CCCCCCCCCCOC(=O)CCCN1CCN(CCCCCC(=O)OCC(CCCCCCC)CCCCCCCC)CC1 (centres unmarked) [YK-501, reference compound] | 0 | 0 | 3334 | 0 | 0 | 14224 | 13.3% | 144 nm | 46243 RLU | 346241 | 174776 | 55543 | 5634 | 63% |  |  |  |  |  |  |  |
| CCCCCCCCCCCCSSCCNC(=O)CCN1CCN(CCCCCC(=O)OCCC(CCCCCC)CCCCCC)CC1 [YK-506, reference compound] | 0 | 0 | 18913 | 0 | 0 | 71213 | 12.2% | 141 nm | 654224 RLU | 1801233 | 257765 | 82221 | 34234 | 90% |  |  |  |  |  |  |  |
| CCCCCCCCc1ccc(CCC(CO)(CO)NCCCCCCNC(=O)C(CCCCCC)CCCCCCCC)cc1 (centres unmarked) [YK-908, 2-hexyl-N-(6-((1-hydroxy-2-(hydroxymethyl)-4-(4-octylphenyl)butan-2-yl)amino)hexyl) decanamide] | 0 | 0 | 1423 | 0 | 0 | 168302 | 12.2% | 121 nm |  | 8918424 | 1176543 | 344643 | 64325 | 89% | 6.59 times | 11.83 times | 2.36 times | 5.01 times | 25.01 times | 6.02 times | Cellular transfection efficiency, times that of MC3 ([3]; Fluc-mRNA LNP): 53.42 times; Cellular transfection efficiency, times that of SM-102 ([3]; Fluc-mRNA LNP): 3.55 times; Cellular transfection efficiency, times that of YK-501 ([3]; Fluc-mRNA LNP): 109.64 times; Cellular transfection efficiency, times that of YK-506 ([3]; Fluc-mRNA LNP): 7.75 times; Cellular transfection efficiency, times that of YK-907 ([3]; Fluc-mRNA LNP, vs YK-907): 134 times and 134.49 times; Cellular transfection efficiency, times that of compound 7 ([3]; Fluc-mRNA LNP): 19.69 times; Cell viability higher than that of YK-907 ([5]; difference vs YK-907): 16% |
| CCCCCCCCCCOC(=O)CCCN(CCCCCC(=O)OCCC(CCCCCC)CCCCCC)CCNC(CO)(CO)CCc1ccc(CCCCCCCC)cc1 [YK-909, 3-hexylnonyl 6-((4-(decyloxy)-4-oxobutyl) (2-((1-hydroxy-2-(hydroxymethyl)-4-(4-octylphenyl)butan-2-yl)amino)ethyl)amino) hexanoate] | 0 | 0 | 9131 | 0 | 0 | 204435 | 11.9% | 132 nm |  | 12924543 | 1322432 | 576433 | 87433 | 92% | 8.00 times | 14.37 times | 2.87 times | 6.71 times | 33.44 times | 8.05 times | Cellular transfection efficiency, times that of MC3 ([3]; Fluc-mRNA LNP): 71.44 times; Cellular transfection efficiency, times that of SM-102 ([3]; Fluc-mRNA LNP): 4.75 times; Cellular transfection efficiency, times that of YK-501 ([3]; Fluc-mRNA LNP): 146.62 times; Cellular transfection efficiency, times that of YK-506 ([3]; Fluc-mRNA LNP): 10.36 times; Cellular transfection efficiency, times that of YK-906 ([3]; Fluc-mRNA LNP, vs YK-906): 246 times and 246.15 times; Cellular transfection efficiency, times that of compound 7 ([3]; Fluc-mRNA LNP): 26.33 times; Cell viability higher than that of YK-906 ([5]; difference vs YK-906): 29% |
